For assay [1], the target named is T1, motor domain of human KSP (Eg 5, KNSL1) (Homo sapiens, UniProt P52732).
T1 construct: KSP motor protein (i.e., the KSP motor domain); made in house
T1 sequence (P52732 18-359 limits assumed): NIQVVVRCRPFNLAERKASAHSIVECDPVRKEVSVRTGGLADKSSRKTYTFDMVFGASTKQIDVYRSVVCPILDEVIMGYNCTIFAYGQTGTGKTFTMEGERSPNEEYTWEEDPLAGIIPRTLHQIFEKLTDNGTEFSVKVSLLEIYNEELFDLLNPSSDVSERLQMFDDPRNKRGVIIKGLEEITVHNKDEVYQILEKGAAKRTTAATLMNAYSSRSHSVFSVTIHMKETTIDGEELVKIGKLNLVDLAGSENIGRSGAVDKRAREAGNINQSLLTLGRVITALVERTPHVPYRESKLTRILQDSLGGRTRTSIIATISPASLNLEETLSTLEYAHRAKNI
Nature of the assay: Assay for determining KSP activity (microtubule-stimulated ATPase, Biomol Green). As to conditions: KSP motor domain 45 nM, microtubules 35 μg/mL, 1 hour at RT; read-out: Biochemical Activity IC50. The text has this:
This example provides a representative in vitro assay for determining KSP activity in vitro. Purified microtubules obtained from bovine brain were purchased from Cytoskeleton Inc. (Denver, Colo., USA). The motor domain of human KSP (Eg 5, KNSL1) was cloned, expressed, and purified to greater than 95% homogeneity. Biomol Green was purchased from Affinity Research Products Ltd. (Matford Court, Exeter, Devon, United Kingdom). Microtubules and KSP motor protein (i.e., the KSP motor domain) were diluted in assay buffer (20 mM Tris-HCl (pH 7.5), 1 mM MgCl2, 10 mM DTT and 0.25 mg/mL BSA) to a final concentration of 35 μg/mL microtubules and 45 nM KSP. The microtubule/KSP mixture was then pre-incubated at 37° C. for 10 min to promote the binding of KSP to microtubules.
To each well of the testing plate (384-well plate) containing 1.25 μL of inhibitor or test compound in DMSO (or DMSO only in the case of controls) were added 25 μL of ATP solution (ATP diluted to a concentration of 300 μM in assay buffer) and 25 μL of the above-described microtubule/KSP solution. The plates were incubated at RT for 1 hour. Following incubation, 65 μL of Biomol Green (a malachite green-based dye that detects the release of inorganic phosphate) was added to each well. The plates were incubated for an additional 5-10 minutes then the absorbance at 630 nm was determined using a Victor II plate reader. The amount of absorbance at 630 nm corresponded to the amount of KSP activity in the samples. The IC50 of each inhibitor or test compound was then determined based on the decrease in absorbance at 630 nm at each concentration, via nonlinear regression using either XLFit for Excel or Prism data analysis software by GraphPad Software Inc.

The subject of the next assay is HCT-15 colon carcinoma. Nature of the assay: Inhibition of cellular proliferation in tumor cell lines (CellTiter Glo), HCT-15. Particulars: Homo sapiens; HCT-15, 72 hours of continuous compound exposure; read-out: Cell Base Activity GI50 HCT-15. It is filed as cell-based. The method, then:
(§1) Cells are plated in 96-well plates at densities of about 500 cells per well of a 96-well plate and are allowed to grow for 24 hours. The cells are then treated with various concentrations of compounds for 72 hours. Then, 100 μl of CellTiter Glo is added. CellTiter Glo is a tetrazolium-based assay using the reagent 3-(4,5-dimethylthiazol-2-yl) 5-(3-carboxymethoxyphenyl)-2-(4-sulfophenyl)-2H-tetrazolium (MTS) (U.S. Pat. No. 5,185,450) (see Promega product catalog #G3580, CellTiter 96 Aqueous One Solution Cell Proliferation Assay). The cells are then incubated in the dark for 30 minutes. The amount of luminescence is determined for each well using a Walloc Trilux plate reader, which correlates with the number of cells per well. The number of viable cells in the wells that receive only DMSO (0.5%) serve as an indication of 0% inhibition, while wells without cells serve as 100% inhibition of cell growth. The compound concentration that results in a 50% growth inhibition (GI50) is determined graphically from sigmoidal dose-response curves of log-transformed dose values versus cell counts (percent of control) at 72 hours of continuous compound exposure.
(§2) The cell lines used are listed below.
(§3) The cell proliferation assay is performed as described above.
In general terms: Cellular ATP, detected with luciferase, serves as a proxy for viable cell number.

A further assay relates to HCT-116 colon carcinoma. Nature of the assay: Inhibition of cellular proliferation in tumor cell lines (CellTiter Glo), HCT-116. Particulars: Homo sapiens; HCT-116, 72 hours of continuous compound exposure; read-out: Cell Base Activity GI50 HCT-116. It counts as cell-based. Here is the method:
as §1, §2, §3

Assay [2] relates to KB8.5 (KB85 - p-glycoprotein associated multi-drug resistant cell line). The assay can be described thus: Inhibition of cellular proliferation in tumor cell lines (CellTiter Glo), KB8.5. It counts as cell-based. As to conditions: KB8.5, 72 hours of continuous compound exposure; read-out: Cell Base Activity GI50 KB8.5. Here is the method: as §1, §2, §3
Another assay deals with parental cell line. Nature of the assay: Inhibition of cellular proliferation in tumor cell lines (CellTiter Glo), KB3.1. It counts as cell-based. Particulars: Homo sapiens, KB 3-1; KB3.1, 72 hours of continuous compound exposure; read-out: Cell Base Activity GI50 KB3.1. Here is the method:
as §1, §2, §3

For orientation: IC50 means the midpoint of a concentration-inhibition curve. A word on the GI50: it is the concentration giving 50% growth inhibition.

Structures are written as SMILES. Bounds are passed on as bounds.

Regarding `CC(C)[C@H](c1nc(-c2cccc(Cl)c2)cn1Cc1ccccc1)N1C[C@H](CN)OCC1=O` [Compound 9, (6S)-6-(aminomethyl)-4-{(1R)-1-[1-benzyl-4-(3-chlorophenyl)-1H-imidazol-2-yl]-2-methylpropyl}morpholin-3-one], the IC50 in assay [1] was more than 1 µM. Moreover, the GI50 with HCT-15 colon carcinoma is 0.1 to 1 µM; in the assay on HCT-116 colon carcinoma it was 0.1 to 1 µM; in assay [2] it was more than 1 µM; in the assay with parental cell line, 0.1 to 1 µM.
Regarding `C[C@@H]1O[C@H](CN)CN([C@@H](c2nc(-c3cccc(F)c3)cn2Cc2ccccc2)C(C)(C)C)C1=O` [Compound 14, (2S,6R)-6-(aminomethyl)-4-{(1R)-1-[1-benzyl-4-(3-fluorophenyl)-1H-imidazol-2-yl]-2,2-dimethylpropyl}-2-methylmorpholin-3-one], the IC50 in assay [1] is more than 1 µM. For the same molecule, the GI50 (in the assay on HCT-15 colon carcinoma; in the assay on HCT-116 colon carcinoma; in assay [2]; in the assay with parental cell line) was more than 1 µM throughout.
Turning to `C[C@H]1O[C@H](CN)CN([C@@H](c2nc(-c3cccc(F)c3)cn2Cc2ccccc2)C(C)(C)C)C1=O` [Compound 15, (2R,6R)-6-(aminomethyl)-4-{(1R)-1-[1-benzyl-4-(3-fluorophenyl)-1H-imidazol-2-yl]-2,2-dimethylpropyl}-2-methylmorpholin-3-one], in assay [1], the IC50 lay in the range of 0.1 to 1 µM. The GI50 (with HCT-15 colon carcinoma; in the assay with HCT-116 colon carcinoma; in assay [2]; in the assay with parental cell line) was more than 1 µM throughout.
`CC(C)(C)[C@H](c1nc(-c2ccccc2)cn1Cc1ccccc1)N1C[C@@H](CN)NC(=O)C1=O` [Compound 16, (5R)-5-(aminomethyl)-1-[(1R)-1-(1-benzyl-4-phenyl-1H-imidazol-2-yl)-2,2-dimethylpropyl]piperazine-2,3-dione]: the IC50 in assay [1] was not above 0.1 µM. Besides, the GI50 in the assay with HCT-15 colon carcinoma is more than 1 µM; with HCT-116 colon carcinoma it was 0.1 to 1 µM; in assay [2] it was more than 1 µM; in the assay with parental cell line, 0.1 to 1 µM.
`CC(C)(C)[C@H](c1nc(-c2ccccc2)cn1Cc1ccccc1)N1C[C@H](CN)NC(=O)C1=O` [Compound 17, (5S)-5-(aminomethyl)-1-[(1R)-1-(1-benzyl-4-phenyl-1H-imidazol-2-yl)-2,2-dimethylpropyl]piperazine-2,3-dione]: the half-maximal inhibitory concentration (IC50) in assay [1] was not above 0.1 µM. In addition, the GI50 (in the assay with HCT-15 colon carcinoma; in the assay with HCT-116 colon carcinoma; in assay [2]; in the assay with parental cell line) was more than 1 µM in each case.
On to `CN1C(=O)C(=O)N([C@@H](c2nc(-c3ccccc3)cn2Cc2ccccc2)C(C)(C)C)C[C@H]1CN` [Compound 18, (5R)-5-(aminomethyl)-1-[(1R)-1-(1-benzyl-4-phenyl-1H-imidazol-2-yl)-2,2-dimethylpropyl]-4-methylpiperazine-2,3-dione], for which the IC50 in assay [1] is not above 0.1 µM. The GI50 in the assay with HCT-15 colon carcinoma is 0.1 to 1 µM; in the assay with HCT-116 colon carcinoma, 0.1 to 1 µM; in assay [2], more than 1 µM; with parental cell line, 0.1 to 1 µM.
On to `CC(C)(C)[C@H](c1nc(-c2ccccc2)cn1Cc1ccccc1)N1C[C@@H](CN)NCCC1=O` [Compound 20, (2R)-2-(aminomethyl)-4-[(1R)-1-(1-benzyl-4-phenyl-1H-imidazol-2-yl)-2,2-dimethylpropyl]-1,4-diazepan-5-one], for which the IC50 in assay [1] lay within 0.1 to 1 µM. Also, the GI50 with HCT-15 colon carcinoma is more than 1 µM; with HCT-116 colon carcinoma, 0.1 to 1 µM; in assay [2], more than 1 µM; in the assay on parental cell line it was 0.1 to 1 µM.
`CC(C)(C)[C@H](c1nc(-c2ccccc2)cn1Cc1ccccc1)N1C[C@@H](CN)OCCC1=O` [Compound 23, (2R)-2-(aminomethyl)-4-[(1R)-1-(1-benzyl-4-phenyl-1H-imidazol-2-yl)-2,2-dimethylpropyl]-1,4-oxazepan-5-one]: the IC50 in assay [1] was in the range of 0.1 to 1 µM. In addition, the GI50 in the assay with HCT-15 colon carcinoma is more than 1 µM; in the assay with HCT-116 colon carcinoma, 0.1 to 1 µM; in assay [2], 0.1 to 1 µM; in the assay on parental cell line it was more than 1 µM.
Take `CC(C)(C)[C@H](c1nc(-c2ccccc2)cn1Cc1ccccc1)N1C[C@@H](CN)COCC1=O` [Compound 25, (6R)-6-(aminomethyl)-4-[(1R)-1-(1-benzyl-4-phenyl-1H-imidazol-2-yl)-2,2-dimethylpropyl]-1,4-oxazepan-3-one]: in assay [1], the IC50 is not above 0.1 µM. Also, the GI50 is 0.1 to 1 µM in the assay on HCT-15 colon carcinoma, not above 0.1 µM in the assay on HCT-116 colon carcinoma, 0.1 to 1 µM in assay [2] and not above 0.1 µM with parental cell line.
On to `CC(C)(C)[C@H](c1nc(-c2cccc(F)c2)cn1Cc1ccccc1)N1C[C@@H](CN)COCC1=O` [Compound 27, (6R)-6-(aminomethyl)-4-{(1R)-1-[1-benzyl-4-(3-fluorophenyl)-1H-imidazol-2-yl]-2,2-dimethylpropyl}-1,4-oxazepan-3-one], for which, in assay [1], the IC50 was not above 0.1 µM. The GI50 is 0.1 to 1 µM with HCT-15 colon carcinoma, not above 0.1 µM in the assay on HCT-116 colon carcinoma, not above 0.1 µM in assay [2] and not above 0.1 µM in the assay on parental cell line.
`CC(C)(C)[C@H](c1nc(-c2cccc(F)c2)cn1Cc1cccc(F)c1)N1C[C@@H](CN)COCC1=O` [Compound 28, (6R)-6-(aminomethyl)-4-{(1R)-1-[1-(3-fluorobenzyl)-4-(3-fluorophenyl)-1H-imidazol-2-yl]-2,2-dimethylpropyl}-1,4-oxazepan-3-one]: in assay [1], the IC50 was not above 0.1 µM. Moreover, the GI50 (in the assay with HCT-15 colon carcinoma; with HCT-116 colon carcinoma; in assay [2]; in the assay on parental cell line) was not above 0.1 µM throughout.
In the case of `CC(C)(C)[C@H](c1nc(-c2cccc(F)c2)cn1Cc1cccc(F)c1)N1C[C@H](CN)COCC1=O` [Compound 29, (6S)-6-(aminomethyl)-4-{(1R)-1-[1-(3-fluorobenzyl)-4-(3-fluorophenyl)-1H-imidazol-2-yl]-2,2-dimethylpropyl}-1,4-oxazepan-3-one], the IC50 in assay [1] is not above 0.1 µM. The GI50 (in the assay with HCT-15 colon carcinoma; in the assay with HCT-116 colon carcinoma; in assay [2]; in the assay with parental cell line) was 0.1 to 1 µM throughout.

(Values after US7820646B2, “Cyclized derivatives as Eg-5 inhibitors” (Novartis Vaccines and Diagnostics, Inc., priority 2007, dated 2010).)
